Earlier results, collected in patent US20200281877A1, “METHOD FOR PREVENTION AND TREATMENT OF ACNE, ECZEMA, PSORIASIS, AND RELATED DERMATOLOGICAL CONDITIONS WITH COMPOSITION COMPRISING A SPHINGOLIPID AND SULPHUR COMPOUNDS” (priority 2018, published 2020).

Tested on: SA_SCD (sphingolipid ceramide N-deacylase)

## [Zn+2] [bivalent zinc (Zn^2+)]
Optimal pH 6.0
  hydrolytic activity of SA_SCD: strongly inhibited
Optimal pH 7.5
  synthetic activity of SA_SCD: strongly inhibited
